Data from patent publication US20250263457A1, “Pharmaceutical Composition for Preventing and Treating Liver Disease Comprising Novel Peptide” (Pusan National University Industry-University Cooperation …, priority 2024, published 2025).

Legend:
[1] = system: alcohol-related liver disease mouse model; experiment: Fibrosis markers and collagen accumulation in liver tissue of mouse model; format: in vivo, C57BL/6 male mice; details: 3.3 μg/kg i.p. every other day for three weeks, EtOH diet group, vs vehicle
Text: To prepare alcohol-related liver disease mice, 8-week-old C57BL/6 male mice were fed with a Lieber DeCarli liquid diet (Dyets, 710260) containing 5% EtOH for 9 weeks, and then injected intraperitoneally with a vehicle (PBS) every other day along with feeding liquid diet for additional 3 weeks. As a control group for the EtOH diet, mice fed with a pair Lieber DeCarli liquid diet (Dyets, 710027) having the same total calories as the EtOH diet were used (FIG. 4A).
In most chronic liver diseases, severe inflammatory responses were accompanied by fibrosis. Accordingly, the degree of fibrosis in the liver tissue of the alcohol-related liver disease mouse model established by the method of Example 5.1 in the present disclosure was confirmed through the expression of fibrosis markers using RT-qPCR and Western blot. In addition, the accumulation of collagen in the liver tissue and the expression of α-SMA were confirmed. In addition, the concentration of collagen in the liver tissue was confirmed through Sirius red staining, and the expression of α-SMA was confirmed through immunohistochemical staining. At this time, RT-qPCR and Western blot were performed in the same manner as in Example 2, and immunohistochemical staining (IHC) was performed in the same manner as in Example 5.2.3. In IHC, an anti-α-SMA antibody was used as the primary antibody.
After deparaffinization and hydration of the liver tissue section slides prepared in the same manner as in Example 5.2.3, the section slides were treated with 0.1% Sirius red F3B (Sigma-Aldrich) and 0.1% Fast Green (Sigma-Aldrich) solutions containing saturated picric acid (Sigma-Aldrich) and reacted for 20 minutes. After the staining reaction was completed, the section slides were dehydrated, mounted, and observed under a microscope. […] In addition, it was confirmed that the expression of α-SMA in the liver tissue in the EtOH diet group increased compared to the control group (pair) (FIG. 5D).
The alcohol-related liver disease mouse model established by the method of Example 5.1 was administered vehicle (PBS) or peptide YJ (3.3 μg/kg) intraperitoneally every other day for three weeks, and then blood was collected and liver tissue was extracted to confirm the liver disease treatment effect of peptide YJ.
The degree of fibrosis in the liver tissue extracted from the experimental mice of Example 5.3 was confirmed in the same manner as in Example 5.2.4.

[2] = system: CD44; experiment: Immunofluorescence of CD44ICD and α-SMA in human pHSCs; format: cell-based; details: 40 ng/ml, immunofluorescence (FIG. 3B)
Protocol: The cleavage of CD44 and the expression of the activation marker of pHSCs by peptide YJ treatment were confirmed through immunofluorescence. At this time, human pHSCs treated with PBS were used as a control group.
Specifically, human pHSCs (5×10^4 cells/ml) were seeded on coverslips and then cultured overnight. The cells were treated with peptide YJ at a concentration of 40 ng/ml and further cultured for 6, 12, and 24 hours, respectively. The cells were fixed and permeabilized by treating each cell with 4% paraformaldehyde and 0.01% Triton X-100. To inhibit non-specific binding of antibodies, blocking (Dako, X9090) was performed, and then the primary antibodies were treated and reacted overnight at 4° C. At this time, the primary antibodies used were anti-CD44ICD antibody (Cosmo Bio, KAL-KO601) and α-SMA (Sigma-Aldrich, A5228). Thereafter, the cells were washed with TBS, treated with a secondary antibody, and reacted at room temperature for 30 minutes. The secondary antibody used were Alexa Fluor 488-conjugated chicken anti-mouse IgG antibody (Invitrogen, A21200) or Alexa Fluor 568-conjugated goat anti-rabbit IgG antibody (Invitrogen, A10042). The cells were washed with TBS, and then treated with 4′,6-diamidino-2-phenylinole (DAPI, VECTASHIELD, H-1200-10) to perform nuclear staining. Finally, the coverslip was fixed on a slide glass using a mounting solution and then observed with a confocal microscope DMi8-S (Leica Microsystems) or CLSM21 (Carl Zeiss Inc.).

[3] = system: CD44; experiment: Western blot of CD44ICD in nuclear proteins of human pHSCs (CD44 cleavage); format: cell-based; details: 40 ng/ml, 24 hours, vs control (FIG. 3A)
Protocol: Specifically, pHSCs were treated with peptide YJ (40 ng/ml) for 0, 6, 12, or 24 hours, and then nuclear proteins were isolated. Western blotting was performed on the isolated nuclear proteins to confirm the expression of CD44 and CD44ICD. The nuclear proteins were obtained by a nuclear protein fractionation method.
At this time, the primary antibodies were used with anti-CD44 antibody (Abcam, ab157107), anti-CD44ICD antibody (Cosmo Bio, KAL-KO601), and anti-LAMIN B1 antibody (Abcam, ab16048), and the secondary antibody was used with Goat anti-Rabbit IgG antibody (HRP conjugate) (Enzo, ADI-SAB-300-J). In addition, human pHSCs treated with PBS were used as a control group. The CD44 and CD44ICD expression results were normalized to the expression level of LAMIN B1, which was an internal control group, and expressed as mean±SEM values obtained from the same experiment repeated three times.

[4] = RT-qPCR, Western blot (FIGS. 7A, 7B)

For “peptide YJ: TSG-6 fragment: core domain RSGKYKLTYAEAKA plus C-terminal extension VCEFEGGHLATYKQLEAARKIGFHVCAAGWMAK (SEQ ID NO: 9); TSG-6 mimetic (RSGKYKLTYAEAKAVCEFEGGHLATYKQLEAARKIGFHVCAAGWMAK; peptide 4)”, the “mRNA and protein expression of collagen1α1 in the liver tissue” value [1, 4] was “significantly reduced”, the “mRNA and protein expression of vimentin in the liver tissue” value [1, 4] was “significantly reduced” and the “mRNA and protein expression of α-SMA in the liver tissue” value [1, 4] was “significantly reduced”. The “collagen accumulation in the liver tissue” value ([1]; hydroxyproline assay, Sirius red staining, IHC (α-SMA) (FIGS. 7C, 7D)) was “significantly reduced”, the “expression of CD44ICD in the nucleus” value ([2]; 12 hours) was “decreased” and the “expression of α-SMA” value ([2]; 12 hours) was “decreased”. For the same substance, the “expression of CD44ICD in the nucleus” value ([2]; 24 hours) was “no expression of CD44ICD in the nucleus was observed”, the “expression of α-SMA” value ([2]; 24 hours) was “significantly decreased” and the “nuclear expression and accumulation of CD44ICD” value [3] was “significantly reduced”.
